Experimental data from US20100203524A1, “POLYMERASES AND METHODS OF USE THEREOF” (Helicos Biosciences Corporation, priority 2008, published 2010).

Experiments:
[1] = system: dNTP-F1 / scarred primer terminus; assay: Sequencing-like kinetic assay: extension of scarred primer terminus with dNTP-F1 by Taq or Taq197; assay type: biochemical; conditions: 37° C., 40 nM enzyme, 10 nM DNA, 100 nM dNTP-F1
Experimental: Scarred primers were prepared enzymatically; following annealing of natural primers (bearing Rhodamine 110 dye-label, purchased from IDT) to templates, 15 U Klenow fragment (exo−) (New England Biolabs) in its supplied buffer was incubated with 5 μM DNA and 25 μM scarred dNTPs in 100 μL for 20 minutes at room temperature to incorporate scarred nucleotides onto the primer. Upon completion, reaction mixtures were heated at 70° C. for 15 minutes to inactivate Klenow fragment and purified from the scarred dNTPs using a DTR spin column (Edge BioSystems). Scarred primers were observed on an ABI3730 DNA sequencer and conversion to the desired scarred primer was greater than 95%.
Polymerases were added to a mixture containing scarred DNA (prepared in previous section), modified dNTPs, and reaction buffer and incubated at either 37° C. or 50° C. and aliquots removed at variable time points and added directly to a quenching solution containing 100 mM EDTA. Reaction products were characterized on an ABI3730 sequencer using the GeneScan™ LIZ 120® size standard (Applied Biosystems) as a reference. The ratio of peak heights, obtained using ABI Peak Scanner (v1.0), was used to calculate percent primer conversion as a function of time and the data was fit to a first order exponential (Prism 4 by GraphPad).
The mutations found in Sf168, Sf197, and Sf267 were cloned into full length Taq, and extension of a scarred primer terminus was characterized by measuring the rate of incorporation of each dNTP-F1 by Taq or a selected mutant. Taq197 (corresponding to the mutations from Sf197) was the most optimized of the three polymerase mutants, incorporating each dNTP-F1 48- to 377-fold more efficiently than wild type Taq, with no apparent bias toward the identity of the dNTP-F1 or the sequence of the primer, as shown in Table 7 below. Buffer conditions were as follows: 20 mM Tris pH 8.8, 10 mM NaCl, 10 mM KCl, 10 mM ammonium sulfate, 0.1% Triton X-100, 10 mM MgCl2, 37° C., 40 nM enzyme, 10 nM DNA, 100 nM dNTP-F1. N1 nucleotides are scarred (see FIG. 1 panel B).

[2] = system: incorrect dNTP-F1s opposite dA in the template; assay: Fidelity: misincorporation of the three incorrect dNTP-F1s opposite dA in the template; assay type: biochemical; conditions: even after 90 minutes
Experimental: To examine the fidelity of Taq197, the misincorporation of the three incorrect dNTP-F1s opposite dA in the template was characterized. […] Thus, based on the detection limit of the assay, it was possible to set an upper limit of 5.6×10^−4 min^−1 for the rate of mispair formation, making correct incorporation of modified nucleotides more than 5,000-fold more efficient than mispair formation.

“Taq: wild type full length T. aquaticus DNA polymerase I (Taq)” was tested, and the “rate of incorporation of dNTP-F1” value ([1]; dNTP-F1 C, N1N1N1/N2N2N2 AAA/UUU) was 0.002 ± 0.0002 min⁻¹, the “rate of incorporation of dNTP-F1” value ([1]; dNTP-F1 G, N1N1N1/N2N2N2 UIJU/AAA) was 0.14 ± 0.05 min⁻¹ and the “rate of incorporation of dNTP-F1” value ([1]; dNTP-F1 N = A, N1N1N1/N2N2N2 UUU/AAA) was 0.011 ± 0.002 min⁻¹. For the same substance, the “rate of incorporation of dNTP-F1” value ([1]; dNTP-F1 U, N1N1N1/N2N2N2 CCC/GGG) was 0.05 ± 0.02 min⁻¹ and the synthesis of mispairs [2] was “does not measurably synthesize any of the mispairs”.
